Experimental data published in patent US20250171423A1, “PHARMACEUTICAL COMPOUNDS FOR THE TREATMENT OF COMPLEMENT MEDIATED DISORDERS” (Achillion Pharmaceuticals, Inc., priority 2020, published 2025).

Biological target: T1, Human complement C1s enzyme (Homo sapiens, UniProt P09871)
T1 construct: purified from human serum, Complement Technology, Inc; purchased Complement Technology, Inc; host or cells: human serum
T1 sequence (P09871 438-688 limits assumed): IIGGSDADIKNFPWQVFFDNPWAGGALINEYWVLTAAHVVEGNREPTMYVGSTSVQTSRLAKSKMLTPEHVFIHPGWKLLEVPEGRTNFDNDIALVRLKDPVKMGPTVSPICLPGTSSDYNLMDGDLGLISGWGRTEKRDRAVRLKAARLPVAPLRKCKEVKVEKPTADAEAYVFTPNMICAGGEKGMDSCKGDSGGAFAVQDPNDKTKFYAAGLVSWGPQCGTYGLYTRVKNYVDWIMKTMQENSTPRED
T1 sequence (P09871 16-437 partner limits assumed): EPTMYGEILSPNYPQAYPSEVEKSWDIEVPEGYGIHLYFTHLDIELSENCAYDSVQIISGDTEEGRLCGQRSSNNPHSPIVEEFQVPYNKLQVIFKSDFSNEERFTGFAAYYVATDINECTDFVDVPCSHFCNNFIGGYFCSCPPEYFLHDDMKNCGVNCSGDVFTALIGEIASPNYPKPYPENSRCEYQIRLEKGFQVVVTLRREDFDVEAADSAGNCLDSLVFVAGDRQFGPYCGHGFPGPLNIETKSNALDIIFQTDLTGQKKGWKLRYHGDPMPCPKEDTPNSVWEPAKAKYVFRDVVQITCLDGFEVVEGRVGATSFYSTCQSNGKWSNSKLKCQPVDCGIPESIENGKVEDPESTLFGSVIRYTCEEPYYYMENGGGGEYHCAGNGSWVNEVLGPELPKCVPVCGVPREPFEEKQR
Test: Human C1s Enzyme Assay
Type: biochemical
Conditions: human C1s 1.16 nM, 5 min preincubation, substrate Z-L-Lys-SBzl 100 μM, A405; read-out: C1s Protease Activity
How it was run: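 C1s purified from human serum (1.16 nM final) was preincubated with compound for 5 min at room temperature in 50 mM Tris, 1 M NaCl, pH 7.5. Z-L-Lys-SBzl and DTNB were then added at 100 μM each, and A405 was followed for 30 min. IC50 came from nonlinear regression of reaction rates.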

IC50 [nM] | SMILES
> 1000 | COC(=O)C(NC(=O)[C@@H]1C[C@@H](OC(F)F)CN1C(=O)CNC(=O)c1ccc(Oc2ccccc2)cc1)c1cc(C(=N)N)cs1 (stereo partly drawn) [Compound 189, methyl 2-(4-carbamimidoylthiophen-2-yl)-2-((2S,4R)-4-(difluoromethoxy)-1-((4-phenoxybenzoyl)glycyl)pyrrolidine-2-carboxamido)acetate]
< 100 | C[C@@H](Oc1ccc(C(=O)NCC(=O)N2[C@H]3C[C@@]3(C)C[C@H]2C(=O)NCc2cc(C(=N)N)cs2)cc1)c1ccccc1 [Compound 223, (1S,3S,5S)-N-((4-carbamimidoylthiophen-2-yl)methyl)-5-methyl-2-((4-((R)-1-phenylethoxy)benzoyl)glycyl)-2-azabicyclo[3.1.0]hexane-3-carboxamide]
> 1000 | C[C@@H](NC(=O)[C@@H]1C[C@@]23COCCCCCCCCCCCCc4cc(ccc4Oc4ccc(F)cc4)C(=O)NCC(=O)N1[C@H]2C3)c1cc(C(=N)N)cs1 [Compound 257, (1R,26S,29S)-N-[(1R)-1-(4-carbamimidoylthiophen-2-yl)ethyl]-17-(4-fluorophenoxy)-21,24-dioxo-3-oxa-22,25-diazatetracyclo[23.2.2.1^16,^20.0^1,^26]triaconta-16,18,20(30)-triene-29-carboxamide]
> 1000 | N=C(N)c1csc([C@@H](Cc2ccccc2)NC(=O)[C@@H]2CC3(CN2C(=O)CNC(=O)CCCOc2ccccc2)OCCO3)c1 [Compound 176, (S)-N-((R)-1-(4-carbamimidoylthiophen-2-yl)-2-phenylethyl)-7-((4-phenoxybutanoyl)glycyl)-1,4-dioxa-7-azaspiro[4.4]nonane-8-carboxamide]
< 100 | C[C@@H](NC(=O)[C@@H]1C[C@](F)(CF)CN1C(=O)CNC(=O)c1ccc(C(=O)c2ccccc2)cc1)c1cc(C(=N)N)cs1 [Compound 202, (2S,4R)-1-((4-benzoylbenzoyl)glycyl)-N-((R)-1-(4-carbamimidoylthiophen-2-yl)ethyl)-4-fluoro-4-(fluoromethyl)pyrrolidine-2-carboxamide]
> 1000 | N=C(N)c1csc([C@H](NC(=O)[C@@H]2C[C@@H](OC(F)F)CN2C(=O)CNC(=O)c2ccc(Oc3ccccc3)cc2)C(N)=O)c1 (single isomer, unassigned) [Compound 215]
< 100 | C[C@@]12C[C@@H]1N(C(=O)CN1Cc3ccc(Oc4ccccc4)cc3C1=O)[C@H](C(=O)NCc1cc(C(=N)N)cs1)C2 [Compound 144, (1S,3S,5S)-N-[(4-carbamimidoylthiophen-2-yl)methyl]-5-methyl-2-[2-(1-oxo-6-phenoxy-3H-isoindol-2-yl)acetyl]-2-azabicyclo[3.1.0]hexane-3-carboxamide]
< 100 | N=C(N)c1csc(CNC(=O)[C@@H]2C[C@@H](C(F)F)CN2C(=O)CNC(=O)c2ccc(Oc3ccccc3)cc2)c1 [Compound 151, (2S,4R)-N-((4-carbamimidoylthiophen-2-yl)methyl)-4-(difluoromethyl)-1-((4-phenoxybenzoyl)glycyl)pyrrolidine-2-carboxamide]
< 100 | C[C@@H](NC(=O)[C@@H]1C[C@]2(COCC(=O)O)C[C@@H]2N1C(=O)CNC(=O)CCCOc1ccccc1)c1cc(C(=N)N)cs1 [Compound 148, 2-(((1S,3S,5R)-3-(((R)-1-(4-carbamimidoylthiophen-2-yl)ethyl)carbamoyl)-2-((4-phenoxybutanoyl)glycyl)-2-azabicyclo[3.1.0]hexan-5-yl)methoxy)acetic acid]
< 100 | Cc1ccccc1[C@@H]1C[C@@H](C(=O)NCc2cc(C(=N)N)cs2)N(C(=O)CNC(=O)CCCOc2ccccc2)C1 [Compound 155, (2S,4S)-N-((4-carbamimidoylthiophen-2-yl)methyl)-1-((4-phenoxybutanoyl)glycyl)-4-(o-tolyl)pyrrolidine-2-carboxamide]
< 100 | CC(C)O[C@@H]1C[C@@H](C(=O)NCc2cc(C(=N)N)cs2)N(C(=O)CNC(=O)c2ccc(Oc3ccccc3)cc2)C1 [Compound 138, (2S,4R)-N-((4-carbamimidoylthiophen-2-yl)methyl)-4-isopropoxy-1-((4-phenoxybenzoyl)glycyl)pyrrolidine-2-carboxamide]

The next lines start with the compound.

SMILES | IC50 [nM]
C[C@@]12C[C@@H]1N(C(=O)CNC(=O)CCCOc1ccccc1)[C@H](C(=O)NCc1cc(C(=N)N)cs1)C2 [Compound 44, (1S,3S,5S)-N-((4-carbamimidoylthiophen-2-yl)methyl)-5-methyl-2-((4-phenoxy-butanoyl)glycyl)-2-azabicyclo[3.1.0]hexane-3-carboxamide] | < 100
C[C@@H](NC(=O)[C@@H]1CC2(CN1C(=O)CNC(=O)CCCOc1ccccc1)OCCO2)c1ccc(C(=N)N)s1 [Compound 133, (S)-N-((R)-1-(5-carbamimidoylthiophen-2-yl)ethyl)-7-((4-phenoxybutanoyl)glycyl)-1,4-dioxa-7-azaspiro[4.4]nonane-8-carboxamide] | < 100
COCCCC(=O)NCC(=O)N1[C@H]2C[C@@]2(C)C[C@H]1C(=O)NCc1cc(C(=N)N)cs1 [Compound 75, (1S,3S,5S)-N-((4-carbamimidoylthiophen-2-yl)methyl)-2-((4-methoxybutanoyl)-glycyl)-5-methyl-2-azabicyclo[3.1.0]hexane-3-carboxamide] | 100 to 1000
Cc1ccc(O[C@@H]2C[C@@H](C(=O)N[C@H](C)c3cc(C(=N)N)cs3)N(C(=O)CNC(=O)CCCOc3ccccc3)C2)cc1 [Compound 131, (2S,4R)-N-((R)-1-(4-carbamimidoylthiophen-2-yl)ethyl)-1-((4-phenoxybutanoyl)glycyl)-4-(p-tolyloxy)pyrrolidine-2-carboxamide] | < 100
C[C@@]12C[C@@H]1N(C(=O)CNC(=O)c1ccc(Oc3ccccc3)cc1)[C@H](C(=O)NCc1cc(C(N)=O)cs1)C2 [Compound 8, (1S,3S,5S)-N-((4-carbamoylthiophen-2-yl)methyl)-5-methyl-2-((4-phenoxybenzoyl)-glycyl)-2-azabicyclo[3.1.0]hexane-3-carboxamide] | > 1000
CC(COc1ccccc1)CC(=O)NCC(=O)N1CC2(C[C@H]1C(=O)NCc1cc(C(=N)N)cs1)OCCO2 (stereo partly drawn) [Compound 70, (8S)-N-((4-carbamimidoylthiophen-2-yl)methyl)-7-((3-methyl-4-phenoxybutanoyl)glycyl)-1,4-dioxa-7-azaspiro[4.4]nonane-8-carboxamide] | < 100
N=C(N)c1csc(CNC(=O)[C@@H]2C[C@@]3(CN2C(=O)CNC(=O)CCCOc2ccccc2)CC3(F)F)c1 [Compound 56, (3S,6S)-N-((4-carbamimidoylthiophen-2-yl)methyl)-1,1-difluoro-5-((4-phenoxy-butanoyl)glycyl)-5-azaspiro[2.4]heptane-6-carboxamide] | < 100
C[C@@]12C[C@@H]1N(C(=O)CNC(=O)c1ccc(Oc3ccccc3)cc1)[C@H](C(=O)NCc1cc(-c3noc(=O)[nH]3)cs1)C2 [Compound 34, (1S,3S,5S)-5-methyl-N-((4-(5-oxo-4,5-dihydro-1,2,4-oxadiazol-3-yl)thiophen-2-yl)methyl)-2-((4-phenoxybenzoyl)glycyl)-2-azabicyclo[3.1.0]hexane-3-carboxamide] | > 1000
N=C(N)c1csc(CNC(=O)[C@@H]2C[C@](F)(CF)CN2C(=O)CNC(=O)CCCOc2ccccc2)c1 [Compound 33, (2S,4R)-N-((4-carbamimidoylthiophen-2-yl)methyl)-4-fluoro-4-(fluoromethyl)-1-((4-phenoxybutanoyl)glycyl)pyrrolidine-2-carboxamide] | < 100
N=C(N)c1csc(CNC(=O)[C@@H]2C[C@H](c3ccccc3)CN2C(=O)CNC(=O)c2ccc(Oc3ccccc3)cc2)c1 [Compound 15, (2S,4R)-N-((4-carbamimidoylthiophen-2-yl)methyl)-1-((4-phenoxybenzoyl)glycyl)-4-phenylpyrrolidine-2-carboxamide] | 100 to 1000
C[C@@]12C[C@@H]1N(C(=O)CNC(=O)CCCOc1ccc(S(C)(=N)=O)cc1)[C@H](C(=O)NCc1cc(C(=N)N)cs1)C2 (stereo partly drawn) [Compound 76, (1S,3S,5S)-N-((4-carbamimidoylthiophen-2-yl)methyl)-5-methyl-2-((4-(4-(S-methyl-sulfonimidoyl)phenoxy)butanoyl)glycyl)-2-azabicyclo[3.1.0]hexane-3-carboxamide] | 100 to 1000
CCCC(COc1ccccc1)CC(=O)NCC(=O)N1CC2(C[C@H]1C(=O)NCc1cc(C(=N)N)cs1)OCCO2 (stereo partly drawn) [Compound 90, (8S)-N-((4-carbamimidoylthiophen-2-yl)methyl)-7-((3-(phenoxymethyl)hexanoyl)glycyl)-1,4-dioxa-7-azaspiro[4.4]nonane-8-carboxamide] | < 100
CC(=O)O/N=C(\N)c1csc(CNC(=O)[C@@H]2C[C@]3(C)C[C@@H]3N2C(=O)CN(C[C@H](O)[C@H](O)[C@@H](O)[C@H](C)O)C(=O)OC(C)(C)C)c1 [Compound 25, tert-butyl (2-((1S,3S,5S)-3-(((4-(N-acetoxycarbamimidoyl)thiophen-2-yl)methyl)-carbamoyl)-5-methyl-2-azabicyclo[3.1.0]hexan-2-yl)-2-oxoethyl)((2S,3S,4S,5S)-2,3,4,5-tetrahydroxyhexyl)carbamate] | > 1000
